In patent US20140155384A1, “COMPOUNDS AND METHODS OF TREATING DIABETES” (Medivation Technologies, Inc., priority 2011, published 2014):

Key:
[1] = target: T1, rat adrenergic α1B receptor (Rattus norvegicus, UniProt P15823); assay: Radioligand binding, adrenergic α1B receptor ([3H]Prazosin); settings: 0.1 μM compound, Wistar rat liver, read-out: Percentage inhibition of ligand binding, Adrenergic α1B
T1 construct: rat adrenergic α1B receptor obtained from Wistar Rat liver; from tissue; host or cells: Wistar rat liver
T1 sequence (P15823 1-515): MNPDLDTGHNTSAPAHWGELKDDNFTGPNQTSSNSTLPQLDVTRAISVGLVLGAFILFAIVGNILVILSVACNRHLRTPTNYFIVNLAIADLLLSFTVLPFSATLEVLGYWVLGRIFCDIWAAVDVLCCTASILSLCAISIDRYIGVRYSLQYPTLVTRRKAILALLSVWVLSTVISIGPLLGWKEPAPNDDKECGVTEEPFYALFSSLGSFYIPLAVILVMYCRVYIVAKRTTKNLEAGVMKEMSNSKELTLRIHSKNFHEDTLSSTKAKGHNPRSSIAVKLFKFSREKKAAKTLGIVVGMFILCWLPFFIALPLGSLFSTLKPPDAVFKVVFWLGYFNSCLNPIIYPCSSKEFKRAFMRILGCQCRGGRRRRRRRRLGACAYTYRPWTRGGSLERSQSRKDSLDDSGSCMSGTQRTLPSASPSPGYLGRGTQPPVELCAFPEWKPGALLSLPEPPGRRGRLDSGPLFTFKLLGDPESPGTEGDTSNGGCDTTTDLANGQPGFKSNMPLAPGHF
Method: To evaluate in radioligand binding assays the activity of compounds, rat adrenergic α1B receptor obtained from Wistar Rat liver (Garcia-S' ainz, J. et al, Biochem. Biophys. Res. Commun. 186:760, 1992; Michel, A. et al, Br. J. Pharmacol. 98:883, 1989) in a modified Tris-HCl buffer (50 mM Tris-HCl buffer, pH 7.4, 0.5 mM EDTA) was used. Compounds were incubated with 0.25 nM [^3H]Prazosin for 60 min at […]. Non-specific binding was estimated in the presence of 10 μM phentolamine. Receptor proteins were filtered and washed, the filters were then counted to determine [^3H]Prazosin specifically bound. Compounds were screened at 1 μM or lower, using 1% DMSO as vehicle. Compounds were tested in this biochemical assay and percent inhibition of specific binding was determined. Biochemical assay results are presented as the percent inhibition of specific binding in Table 2.

[2] = target: T2, human recombinant adrenergic α1D receptor (Homo sapiens, UniProt P25100); assay: Radioligand binding, adrenergic α1D receptor ([3H]Prazosin); settings: 0.1 μM compound; HEK-293 cells; 0.6 nM [3H]Prazosin; read-out: Percentage inhibition of ligand binding, Adrenergic α1D
T2 construct: expressed in transfected cells; host or cells: HEK-293
T2 sequence (P25100 1-572): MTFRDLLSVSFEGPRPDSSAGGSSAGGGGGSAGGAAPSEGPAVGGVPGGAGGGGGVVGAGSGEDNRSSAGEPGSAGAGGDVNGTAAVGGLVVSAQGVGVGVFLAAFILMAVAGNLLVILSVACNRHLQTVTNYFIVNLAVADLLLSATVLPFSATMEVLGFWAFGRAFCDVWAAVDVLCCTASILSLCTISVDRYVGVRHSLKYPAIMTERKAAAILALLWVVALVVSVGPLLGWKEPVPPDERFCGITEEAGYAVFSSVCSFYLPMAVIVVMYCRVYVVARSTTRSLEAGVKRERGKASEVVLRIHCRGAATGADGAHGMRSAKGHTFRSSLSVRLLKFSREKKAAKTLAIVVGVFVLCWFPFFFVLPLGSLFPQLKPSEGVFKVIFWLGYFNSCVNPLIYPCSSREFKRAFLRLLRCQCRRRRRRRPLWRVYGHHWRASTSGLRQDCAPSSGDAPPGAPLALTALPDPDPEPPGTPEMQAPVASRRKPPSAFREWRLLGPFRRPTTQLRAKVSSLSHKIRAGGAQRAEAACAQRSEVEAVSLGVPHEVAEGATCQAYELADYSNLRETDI
Method: Compounds were incubated with 0.6 nM [3H]Prazosin for 60 min at 25° C. Non-specific binding was estimated in the presence of 10 μM phentolamine. Receptor proteins were filtered and washed, the filters were then counted to determine [3H]Prazosin specifically bound. Compounds were screened at 1 μM or lower, using 1% DMSO as vehicle. Biochemical assay results are presented as the percent inhibition of specific binding in Table 2.

[3] = target: T3, human recombinant adrenergic α2A receptor (Homo sapiens, UniProt P08913); assay: Radioligand binding, adrenergic α2A receptor ([3H]MK-912); settings: 0.1 μM compound, Sf9 cells, 1 nM [3H]MK-912; for inhibition at 0.1 µM: read-out: Percentage inhibition of ligand binding, Adrenergic α2A
T3 construct: expressed in transfected cells; host or cells: insect Sf9 cells
T3 sequence (P08913 1-465): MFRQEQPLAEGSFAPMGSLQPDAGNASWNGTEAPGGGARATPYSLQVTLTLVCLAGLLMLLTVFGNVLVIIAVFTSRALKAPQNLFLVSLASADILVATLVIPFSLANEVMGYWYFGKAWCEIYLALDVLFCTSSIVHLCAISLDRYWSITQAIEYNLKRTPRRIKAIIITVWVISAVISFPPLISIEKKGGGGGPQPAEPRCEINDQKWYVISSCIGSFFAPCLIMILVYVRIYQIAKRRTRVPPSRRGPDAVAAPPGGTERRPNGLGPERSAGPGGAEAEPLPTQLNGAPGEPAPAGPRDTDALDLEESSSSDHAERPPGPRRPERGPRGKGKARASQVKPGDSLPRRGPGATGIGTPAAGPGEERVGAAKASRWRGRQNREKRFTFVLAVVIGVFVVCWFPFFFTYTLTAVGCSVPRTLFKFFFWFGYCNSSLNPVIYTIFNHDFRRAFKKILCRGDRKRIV
Method: To evaluate in radioligand binding assays the activity of compounds, human recombinant adrenergic α2A receptor expressed in insect Sf9 cells (Uhlen, S. et al, J. Pharmacol. Exp. Ther. 271:1558, 1994) in a modified Tris-HCl buffer (50 mM Tris-HCl, pH 7.4, 12.5 mM MgCl2, 2 mM EDTA) was used. Compounds were incubated with 1 nM [^3H]MK-912 for 60 min at 25° C. MK912 is (2S-trans)-1,3,4,5′,6,6′,7,12b-octahydro-1′,3′-dimethyl-spiro[2H-benzofuro[2,3-a]quinolizine-2,4′(1′H)-pyrimidin]-2′(3′H)-one hydrochloride Non-specific binding was estimated in the presence of 10 μM WB-4101 (2-(2,6-Dimethoxyphenoxyethyl)aminoethyl-1,4-benzodioxane hydrochloride). Receptor proteins were filtered and washed, the filters were then counted to determine [^3H]MK-912 specifically bound. Compounds were screened at 1 μM or lower, using 1% DMSO as vehicle. Compounds were tested in this biochemical assay and percent inhibition of specific binding was determined. Biochemical assay results are presented as the percent inhibition of specific binding in Table 2.

[4] = target: T4, human recombinant adrenergic α2B receptor (Homo sapiens, UniProt P18089); assay: Radioligand binding, adrenergic α2B receptor ([3H]Rauwolscine); settings: CHO-K1 cells, read-out: Percentage inhibition of ligand binding, Adrenergic α2B; for inhibition at 0.1 µM: 0.1 μM compound
T4 construct: expressed in transfected cells; host or cells: CHO-K1
T4 sequence (P18089 1-450): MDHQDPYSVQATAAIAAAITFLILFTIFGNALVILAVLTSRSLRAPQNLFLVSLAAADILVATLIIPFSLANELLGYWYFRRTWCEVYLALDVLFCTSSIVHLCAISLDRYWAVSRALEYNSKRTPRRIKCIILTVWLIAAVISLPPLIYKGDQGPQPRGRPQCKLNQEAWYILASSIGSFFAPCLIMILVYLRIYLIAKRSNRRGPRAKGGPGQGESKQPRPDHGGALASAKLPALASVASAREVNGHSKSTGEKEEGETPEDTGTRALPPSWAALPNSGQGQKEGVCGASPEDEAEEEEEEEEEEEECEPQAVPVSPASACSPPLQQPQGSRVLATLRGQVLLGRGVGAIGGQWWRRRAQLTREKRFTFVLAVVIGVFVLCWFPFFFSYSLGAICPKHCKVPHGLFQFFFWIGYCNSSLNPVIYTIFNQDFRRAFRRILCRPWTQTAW
Method: To evaluate in radioligand binding assays the activity of compounds, human recombinant adrenergic α2B receptor expressed in Chinese hamster ovary (CHO) K1 cells (Uhlen, S. et al, Eur. J. Pharmacol. 343(1):93, 1998) in a modified Tris-HCl buffer (50 mM Tris-HCl, pH 7.4, 12.5 mM MgCl2, 1 mM EDTA, 0.2% BSA) was used. Compounds were incubated with 2.5 nM [^3H]Rauwolscine for 60 min at 25° C. Non-specific binding was estimated in the presence of 10 μM Prazosin. Receptor proteins were filtered and washed, the filters were then counted to determine [^3H]Rauwolscine specifically bound. Compounds were screened at 1 μM or lower, using 1% DMSO as vehicle. Compounds were tested in this biochemical assay and percent inhibition of specific binding was determined. Biochemical assay results are presented as the percent inhibition of specific binding in Table 2.

SMILES | inhibition at 0.1 µM [1] | inhibition at 0.1 µM [2] | inhibition at 0.1 µM [3] | inhibition at 0.1 µM [4] | Percentage inhibition of ligand binding, Adrenergic α2A [3] | inhibition at 0.03 µM ([4]; 0.03 μM compound)
Cc1ccc2c(c1)c1c(n2-c2ccccc2-c2cnn(C)c2)CCN(C)C1 [Compound No. 86, 2,8-dimethyl-5-(2-(1-methyl-1H-pyrazol-4-yl)phenyl)-2,3,4,5-tetrahydro-1H-pyrido[4,3-b]indole] | 26% | 22% | 33% | 67% | – | –
Cc1ccc2c(c1)c1c(n2-c2cnc3ccccc3c2)CCN(C)C1 [Compound No. 88, 2,8-dimethyl-5-quinolin-3-yl-2,3,4,5-tetrahydro-1H-pyrido[4,3-b]indole] | 36% | 20% | 15% | 80% | – | –
Cc1cc(C)c2c(c1)c1c(n2-c2cccc(-c3ccncc3)c2)CCN(C)C1 [Compound 57, 2,6,8-trimethyl-5-(3-(pyridin-4-yl)phenyl)-2,3,4,5-tetrahydro-1H-pyrido[4,3-b]indole] | 6% | -1% | 7% | 11% | – | –
Cc1ccc2c(c1)c1c(n2-c2cccc(-c3cn[nH]c3)c2)CCN(C)C1 [Compound No. 70, 5-(3-(1H-pyrazol-4-yl)phenyl)-2,8-dimethyl-2,3,4,5-tetrahydro-1H-pyrido[4,3-b]indole] | 18% | 9% | 34% | 19% | – | –
Cc1ccc2c(c1)c1c(n2-c2ccccc2-c2ccc(C)nc2)CCN(C)C1 [Compound 59, 2,8-dimethyl-5-(2-(6-methylpyridin-3-yl)phenyl)-2,3,4,5-tetrahydro-1H-pyrido[4,3-b]indole] | 47% | 65% | 77% | 91% | – | –
Cc1ccc2c(c1)c1c(n2-c2ccc(-c3ccc(F)nc3)cn2)CCN(C)C1 [Compound No. 142, 5-(6′-fluoro-3,3′-bipyridin-6-yl)-2,8-dimethyl-2,3,4,5-tetrahydro-1H-pyrido[4,3-b]indole] | 83% | 78% | 59% | 91% | – | –
Cc1ccc2c(c1)c1c(n2-c2cnc3c(c2)CCCC3)CCN(C)C1 [Compound No. 153] | – | – | 1% | – | – | –
Cc1ccc2c(c1)c1c(n2-c2ccccc2-c2ccc(S(N)(=O)=O)cc2)CCN(C)C1 [Compound No. 163, 2′-(2,8-dimethyl-3,4-dihydro-1H-pyrido[4,3-b]indol-5(2H)-yl)biphenyl-4-sulfonamide] | – | – | – | 69% | – | –
Cc1ccc2c(c1)c1c(n2-c2ncccc2-c2ccncc2)CCN(C)C1 [Compound No. 161, 5-(3,4′-bipyridin-2-yl)-2,8-dimethyl-2,3,4,5-tetrahydro-1H-pyrido[4,3-b]indole] | – | – | – | 26% | – | –
Cc1ccc2c(c1)c1c(n2-c2cnc(C)c3ccccc23)CCN(C)C1 [Compound No. 164, 2,8-dimethyl-5-(1-methylisoquinolin-4-yl)-2,3,4,5-tetrahydro-1H-pyrido[4,3-b]indole] | – | – | – | 3% | – | –
Cc1ccc2c(c1)c1c(n2-c2ccccc2-c2ccc(S(C)(=O)=O)cc2)CCN(C)C1 [Compound No. 160, 2,8-dimethyl-5-(4′-(methylsulfonyl)biphenyl-2-yl)-2,3,4,5-tetrahydro-1H-pyrido[4,3-b]indole] | – | – | – | 74% | – | –
Cc1ccc2c(c1)c1c(n2-c2ccccc2-c2cnccc2C)CCN(C)C1 [Compound No. 159, 2,8-dimethyl-5-(2-(4-methylpyridin-3-yl)phenyl)-2,3,4,5-tetrahydro-1H-pyrido[4,3-b]indole] | – | – | – | 56% | – | –
Cc1ccc2c(c1)c1c(n2-c2ccccc2-c2cn[nH]c2)CCN(C)C1 [Compound No. 104, 5-(2-(1H-pyrazol-4-yl)phenyl)-2,8-dimethyl-2,3,4,5-tetrahydro-1H-pyrido[4,3-b]indole] | – | 22% | 10% | 87% | 19% | 61%
